≈ marks a conversion by molar mass, not a printed value. Like-named read-outs stand apart in the source and are kept apart here.
How the values were obtained:
[1] = system: Slc:ddy five week male mice; assay: Acute toxicity, intravenous administration to mice; type: in vivo; conditions: for acute toxicity result in words: same test as cis/trans (cis: 0/5 deaths); for Number of death: hydrochloride in distilled water
Protocol: A solution of 5-amino-7-[4-(R)-(1-aminocyclopropyl)-3-(S)-fluoro-1-pyrrolidinyl]-6-fluoro-1-[2-(S)-fluoro-1-(R)-cyclopropyl]-1,4-dihydro-8-methyl-4-oxoquinoline-3-carboxylic acid (abbreviated as cis) hydrochloride of Example 15 or 5-amino-7-[4-(R)-(1-aminocyclopropyl)-3-(R)-fluoro-1-pyrrolidinyl]-6-fluoro-1-[2-(S)-fluoro-1-(R)-cyclopropyl]-1,4-dihydro-8-methyl-4-oxoquinoline-3-carboxylic acid (abbreviated as trans) hydrochloride in distilled water for injection was administered intravenously to Slc:ddy five week male mice (five mice per group) and the symptoms are observed.

S. flexneli, 2A 5503 = assay: Antimicrobial activity (MIC), standard method of the Japan Society of Chemotherapy; type: cell-based; conditions: for minimum inhibitory concentration (MIC): S. flexneli, 2A 5503
Protocol: (§1) Examples of the first and second aspects of the present invention are given below by way of illustration and not by way of limitation. In-this regard, the antibacterial and antimicrobial activities of the compounds of interest were measured in accordance with the standard method specified by the Japan Society of Chemotherapy. The results are shown in Tables 1 to 5 as a minimum inhibitory concentration (MIC,μg/ml). Unless otherwise indicated, all percents (%) are by weight.

Pr. vulgaris, 08601 = assay: as above; type: cell-based; conditions: for MIC: Proteus vulgaris, read-out: minimum inhibitory concentration (MIC)
Protocol: as §1

Ps. aeruginosa, 32104 = assay: as above; type: cell-based; conditions: for minimum inhibitory concentration (MIC): Ps. aeruginosa
Protocol: as §1

S. epidermidis, 56500 = assay: as above; type: cell-based
Protocol: as §1

[2] = system: Ps. maltophilia, IID-1275; assay: as above; type: cell-based
Protocol: as §1

Pr. mirabilis, IFO-3849 = assay: as above; type: cell-based
Protocol: as §1

Ser. marcescens, 10100 = assay: as above; type: cell-based
Protocol: as §1

[3] = system: Str. faecalis, ATCC-19433; assay: as above; type: cell-based
Protocol: as §1

S. aureus, 209P = assay: as above; type: cell-based
Protocol: as §1

Ps. aeruginosa, 32121 = assay: as above; type: cell-based
Protocol: as §1

Str. pyogenes, G-36 = assay: as above; type: cell-based
Protocol: as §1

E. coli, NIHJ = assay: as above; type: cell-based
Protocol: as §1

S. aureus, 870307 = assay: as above; type: cell-based
Protocol: as §1

[4] = 150 mg/kg, * = test stopped when second mouse died
[5] = Staphylococcus epidermidis, S. epidermidis, 56500, read-out: minimum inhibitory concentration (MIC)
[6] = Staphylococcus aureus, read-out: minimum inhibitory concentration (MIC)

Cc1c(N2C[C@@H](CO)[C@@H](C3(N)CC3)C2)c(F)c(N)c2c(=O)c(C(=O)O)cn(C3CC3)c12 (relative stereo) [Example 14, 5-Amino-7-[cis-4-(1-aminocyclopropyl)-3-hydroxymethyl-1-pyrrolidinyl]-1-cyclopropyl-6-fluoro-1,4-dihydro-8-methyl-4-oxoquinoline-3-carboxylic acid]
acute toxicity result in words ([1]; 150 mg/kg): same result

COc1c(N2C[C@@H](F)[C@@H](C3(N)CC3)C2)c(F)cc2c(=O)c(C(=O)O)cn([C@@H]3C[C@@H]3F)c12 [Example 12, 7-[4-(R)-(1-Aminocyclopropyl)-3-(S)-fluoro-1-pyrrolidinyl]-6-fluoro-1-[2-(S)-fluoro-1-(R)-cyclopropyl]-1,4-dihydro-8-methoxy-4-oxoquinoline-3-carboxylic acid]
acute toxicity result in words ([1]; 150 mg/kg): same result | minimum inhibitory concentration (MIC) (S. flexneli, 2A 5503): 0.013 µg/mL (≈ 0.0297 µM) | minimum inhibitory concentration (MIC) (S. flexneli, 2A 5503; listed as 18): 0.006 µg/mL (≈ 0.0137 µM) | MIC (Pr. vulgaris, 08601): 0.006 µg/mL (≈ 0.0137 µM) | minimum inhibitory concentration (MIC) (Ps. aeruginosa, 32104; listed as 18): 0.20 µg/mL (≈ 0.457 µM)

C[C@H]1COc2c(N3C[C@@H](F)[C@@H](C4(N)CC4)C3)c(F)c(N)c3c(=O)c(C(=O)O)cn1c23 [Example 21, 8-Amino-10-[4-(R)-(1-aminocyclopropyl)-3-(S)-fluoro-1-pyrrolidinyl]-9-fluoro-2,3-dihydro-3-(S)-methyl-7-oxo-7H-pyrido[1,2,3-de][1,4]benzoxazine-6-carboxylic acid]
acute toxicity result in words ([1]; 150 mg/kg): same result | MIC (S. epidermidis, 56500; Staphylococcus epidermidis, 56500, read-out: minimum inhibitory concentration (MIC)): 0.013 µg/mL (≈ 0.0309 µM)

C[C@H]1COc2c(N3C[C@@H](F)[C@@H](C4(N)CC4)C3)c(F)cc3c(=O)c(C(=O)O)cn1c23 [Example 17, 10-[4-(R)-(1-Aminocyclopropyl)-3-(S)-fluoro-1-pyrrolidinyl]-9-fluoro-2,3-dihydro-3-(S)-methyl-7-oxo-7H-pyrido[1,2,3-de][1,4]benzoxazine-6-carboxylic acid]
acute toxicity result in words ([1]; 150 mg/kg): same result

Cc1c(N2C[C@@H](F)[C@@H](C3(N)CCC3)C2)c(F)c(N)c2c(=O)c(C(=O)O)cn([C@@H]3C[C@@H]3F)c12 (single isomer, unassigned; isomer b) [Example 13]
acute toxicity result in words ([1]; 150 mg/kg): same result | minimum inhibitory concentration (MIC) [2]: 0.20 µg/mL (≈ 0.444 µM) | minimum inhibitory concentration (MIC) (S. flexneli, 2A 5503): 0.006 µg/mL (≈ 0.0133 µM) | minimum inhibitory concentration (MIC) (Pr. vulgaris, 08601): 0.025 µg/mL (≈ 0.0555 µM) | minimum inhibitory concentration (MIC) (Ps. aeruginosa, 32104): 0.20 µg/mL (≈ 0.444 µM) | minimum inhibitory concentration (MIC) (Pr. mirabilis, IFO-3849): 0.05 µg/mL (≈ 0.111 µM) | minimum inhibitory concentration (MIC) (Ser. marcescens, 10100): 0.20 µg/mL (≈ 0.444 µM) | minimum inhibitory concentration (MIC) [3]: 0.025 µg/mL (≈ 0.0555 µM) | minimum inhibitory concentration (MIC) (S. aureus, 209P): ≤ 0.003 µg/mL | minimum inhibitory concentration (MIC) (S. epidermidis, 56500; S. epidermidis, 56500): 0.006 µg/mL (≈ 0.0133 µM) | minimum inhibitory concentration (MIC) (Ps. aeruginosa, 32121): 0.10 µg/mL (≈ 0.222 µM) | minimum inhibitory concentration (MIC) (Str. pyogenes, G-36): 0.006 µg/mL (≈ 0.0133 µM) | minimum inhibitory concentration (MIC) (E. coli, NIHJ): ≤ 0.003 µg/mL | minimum inhibitory concentration (MIC) (S. aureus, 870307): 0.05 µg/mL (≈ 0.111 µM)

Cc1c(N2C[C@H](F)[C@@H](C3(N)CC3)C2)c(F)c(N)c2c(=O)c(C(=O)O)cn([C@@H]3C[C@@H]3F)c12.Cl [Example 5, 5-Amino-7-[4-(R)-(1-aminocyclopropyl)-3-(R)-fluoro-1-pyrrolidinyl]-6-fluoro-1-[2-(S)-fluoro-1-(R)-cyclopropyl]-1,4-dihydro-8-methyl-4-oxoquinoline-3-carboxylic acid hydrochloride]
Number of death ([1]; 50 mg/kg): 0/5 | Number of death ([1]; 100 mg/kg, * = test stopped when second mouse died): 2/2 | Number of death [1, 4]: 2/2 | MIC (S. epidermidis, 56500; [5]): ≤ 0.003 µg/mL

Cc1c(N2C[C@@H](F)[C@@H](C3(N)CC3)C2)c(F)c(N)c2c(=O)c(C(=O)O)cn([C@@H]3C[C@@H]3F)c12.Cl [Example 15, 5-Amino-7-[4-(R)-(1-aminocyclopropyl)-3-(S)-fluoro-1-pyrrolidinyl]-6-fluoro-1-[2-(S)-fluoro-1-(R)-cyclopropyl]-1,4-dihydro-8-methyl-4-oxoquinoline-3-carboxylic acid hydrochloride]
Number of death [1, 4]: 0/5

Cc1c(N2C[C@H](C)[C@@H](C3(N)CC3)C2)c(F)c(N)c2c(=O)c(C(=O)O)cn([C@@H]3C[C@@H]3F)c12 [Example 3, 5-Amino-7-[(3R,4R)-3-(1-aminocyclopropyl)-4-methyl-1-pyrrolidinyl]-6-fluoro-1-[(1R,2S)-2-fluorocyclopropyl]-1,4-dihydro-8-methyl-4-oxoquinoline-3-carboxylic acid]
MIC ([2]; Stenotrophomonas maltophilia, IID1275, read-out: minimum inhibitory concentration (MIC)): 0.1 µg/mL (≈ 0.231 µM) | MIC (S. flexneli, 2A 5503; read-out: minimum inhibitory concentration (MIC), S. flexneli, 2A 5503): ≤ 0.003 µg/mL | MIC (Pr. vulgaris, 08601): 0.025 µg/mL (≈ 0.0578 µM) | MIC (Ps. aeruginosa, 32104; Pseudomonas aeruginosa, 32104, Ps. aeruginosa, read-out: minimum inhibitory concentration (MIC)): 0.2 µg/mL (≈ 0.462 µM) | MIC (Pr. mirabilis, IFO-3849; Proteus mirabilis, IFO3849, read-out: minimum inhibitory concentration (MIC)): 0.05 µg/mL (≈ 0.116 µM) | MIC (Ser. marcescens, 10100; Serratia marcescens, read-out: minimum inhibitory concentration (MIC)): 0.1 µg/mL (≈ 0.231 µM) | MIC ([3]; Enterococcus faecalis, ATCC19433, read-out: minimum inhibitory concentration (MIC)): 0.025 µg/mL (≈ 0.0578 µM) | MIC (S. aureus, 209P; [6]): ≤ 0.003 µg/mL | MIC (S. epidermidis, 56500; [5]): ≤ 0.003 µg/mL | MIC (Ps. aeruginosa, 32121; Pseudomonas aeruginosa, read-out: minimum inhibitory concentration (MIC)): 0.1 µg/mL (≈ 0.231 µM) | MIC (Str. pyogenes, G-36; Streptococcus pyogenes, G36, read-out: minimum inhibitory concentration (MIC)): ≤ 0.003 µg/mL | MIC (E. coli, NIHJ; Escherichia coli, read-out: minimum inhibitory concentration (MIC)): ≤ 0.003 µg/mL | MIC (S. aureus, 870307; [6]): 0.025 µg/mL (≈ 0.0578 µM)

COc1c(N2C[C@@H](F)[C@@H](C3(N)CC3)C2)c(F)c(N)c2c(=O)c(C(=O)O)cn([C@@H]3C[C@@H]3F)c12 [Example 16, 5-Amino-7-[4-(R)-(1-aminocyclopropyl)-3-(S)-fluoro-1-pyrrolidinyl]-6-fluoro-1-[2-(S)-fluoro-1-(R)-cyclopropyl]-1,4-dihydro-8-methoxy-4-oxoquinoline-3-carboxylic acid]
acute toxicity result in words ([1]; 150 mg/kg): same result
